Reference: paper PMC5421785, “Citrullination only infrequently impacts peptide binding to HLA class II MHC” (PLoS ONE, 2017)
Like-named read-outs stand apart in the source and are kept apart here. Square brackets hold non-standard residues; d marks the D form. Peptide text beside a SMILES is read from it. Cit = NC(=O)NCCC[C@H](N)C(=O)O

Assays:
HLA-DRB1*01:01 = biological target: T1, HLA-DRB1*01:01 (Homo sapiens, UniProt P01903+P01911, A100R/D57E/F55L/F60I/F76Y/I96L/L162R/M171V/P40L/Q125E/R42F/V115G/Y59C); assay: HLA class II peptide binding, inhibition of radiolabeled peptide binding to purified MHC; settings: for IC50: read-out: DRB1*01:01 binding capacity, Cit peptide (IC50 nM); for DRB1*01:01 binding capacity, WT/cit ratio: ratio of WT IC50 to Cit IC50
T1 construct: EBV transformed homozygous cell lines were used as sources of MHC molecules; endogenous in cells; host or cells: EBV transformed homozygous cell lines

HLA-DRB1*04:01 = biological target: T2, HLA-DRB1*04:01 (Homo sapiens, UniProt P01903+P01911, A100K/A169T/F76Y/I96L/K127E/L162R/M171V/N62H/P40V/Q125Y/R42H/S133A/S149N/S66Y/V115G/V209L/W38E); assay: as above; settings: for IC50: read-out: DRB1*04:01 binding capacity, Cit peptide (IC50 nM); for DRB1*04:01 binding capacity, WT/cit ratio: ratio of WT IC50 to Cit IC50
T2 construct: EBV transformed homozygous cell lines were used as sources of MHC molecules; endogenous in cells; host or cells: EBV transformed homozygous cell lines

[1] = citrullinated 15-mer peptide (X = citrulline), purified HLA-DRB1*01:01
[2] = >1 = citrullination increases binding
[3] = citrullinated 15-mer peptide (X = citrulline), purified HLA-DRB1*04:01
[4] = citrullinated 15-mer peptide (X = citrulline), […]
[5] = citrullinated 15-mer (X), purified MHC, inhibition of radiolabeled peptide binding, dash = IC50 >40,000 nM

| Structure (SMILES) | IC50 (HLA-DRB1*01:01; [1]) | IC50 (HLA-DRB1*04:01; [3]) | further results |
| --- | --- | --- | --- |
| C[C@H](NC(=O)[C@@H]1CCCN1C(=O)CNC(=O)[C@@H]1CCCN1)C(=O)NCC(=O)N1CCC[C@H]1C(=O)N[C@H](C(=O)NCC(=O)N[C@@H](CCCCN)C(=O)N[C@@H](CCC(N)=O)C(=O)NCC(=O)N[C@@H](CC(=O)O)C(=O)N[C@@H](CCCNC(N)=O)C(=O)NCC(=O)N[C@@H](CCC(=O)O)C(=O)O)[C@@H](C)O [PGPAGPTGKQGDXGE] (H-PGPAGPTGKQGD[Cit]GE-OH; N-terminus and C-terminus assumed) | > 40000 nM | > 40000 nM | DRB1*01:01 binding capacity, WT/cit ratio (HLA-DRB1*01:01; [2]): 1.0; DRB1*04:01 binding capacity, WT/cit ratio (HLA-DRB1*04:01; [2]): 1.0 |
| CC[C@H](C)[C@H](NC(=O)CNC(=O)[C@H](CCCNC(N)=O)NC(=O)[C@H](CCC(N)=O)NC(=O)CNC(=O)[C@H](C)NC(=O)[C@H](CC(C)C)NC(=O)CNC(=O)[C@H](CCC(N)=O)NC(=O)[C@@H]1CCCN1C(=O)CNC(=O)[C@@H]1CCCN1)C(=O)N[C@H](C(=O)NCC(=O)N[C@@H](CC(C)C)C(=O)O)C(C)C [PGPQGLAGQXGIVGL] | 7.1 nM | 7920 nM |  |
| CC(C)C[C@H](NC(=O)CNC(=O)[C@@H]1CCCN1C(=O)[C@H](Cc1ccccc1)NC(=O)CNC(=O)[C@H](CCCNC(N)=O)NC(=O)[C@H](CCC(=O)O)NC(=O)CNC(=O)[C@H](CCCNC(=N)N)NC(=O)[C@H](CCC(N)=O)NC(=O)CNC(=O)[C@@H]1CCCN1)C(=O)N1CCC[C@H]1C(=O)NCC(=O)N1CCC[C@H]1C(=O)O [PGQRGEXGFPGLPGP] (H-PGQRGE[Cit]GFPGLPGP-OH) | 10500 nM | > 40000 nM |  |
| CC(C)C[C@H](NC(=O)CNC(=O)[C@@H]1CCCN1C(=O)[C@H](Cc1ccccc1)NC(=O)CNC(=O)[C@H](CCCNC(=N)N)NC(=O)[C@H](CCC(=O)O)NC(=O)CNC(=O)[C@H](CCCNC(N)=O)NC(=O)[C@H](CCC(N)=O)NC(=O)CNC(=O)[C@@H]1CCCN1)C(=O)N1CCC[C@H]1C(=O)NCC(=O)N1CCC[C@H]1C(=O)O [PGQXGERGFPGLPGP] (H-PGQ[Cit]GERGFPGLPGP-OH) | 6470 nM | > 40000 nM |  |
| CC(C)C[C@H](NC(=O)[C@H](CO)NC(=O)[C@H](CO)NC(=O)[C@H](Cc1ccccc1)NC(=O)[C@H](CC(N)=O)NC(=O)[C@@H]1CCCN1)C(=O)N[C@@H](CC(N)=O)C(=O)N[C@@H](CC(C)C)C(=O)N[C@@H](CCCNC(N)=O)C(=O)N[C@@H](CCC(=O)O)C(=O)N[C@H](C(=O)N[C@@H](CC(N)=O)C(=O)N[C@@H](CC(C)C)C(=O)N[C@@H](CC(=O)O)C(=O)N[C@@H](CO)C(=O)O)[C@@H](C)O [PNFSSLNLXETNLDS] (H-PNFSSLNL[Cit]ETNLDS-OH) | 448 nM | 1950 nM |  |
| C[C@H](NC(=O)[C@@H]1CCCN1C(=O)CNC(=O)[C@H](CCC(N)=O)NC(=O)[C@@H]1CCCN1C(=O)CNC(=O)[C@@H]1CCCN1C(=O)[C@@H]1CCCN1)C(=O)NCC(=O)N[C@@H](CCC(=O)O)C(=O)N[C@@H](CCC(N)=O)C(=O)NCC(=O)N1CCC[C@H]1C(=O)N[C@@H](CCCNC(N)=O)C(=O)NCC(=O)O [PPGPQGPAGEQGPXG] (H-PPGPQGPAGEQGP[Cit]G-OH) |  |  | IC50 (HLA-DRB1*01:01; [4]): 35600 nM; IC50 (HLA-DRB1*04:01; [4]): > 40000 nM |
| CC(C)C[C@H](NC(=O)[C@H](CO)NC(=O)[C@H](CCCNC(N)=O)NC(=O)[C@H](CO)NC(=O)[C@@H](NC(=O)[C@H](CO)NC(=O)[C@@H]1CCCN1)[C@@H](C)O)C(=O)N[C@@H](Cc1ccc(O)cc1)C(=O)N[C@@H](C)C(=O)N[C@@H](CO)C(=O)N[C@@H](CO)C(=O)N1CCC[C@H]1C(=O)NCC(=O)NCC(=O)N[C@H](C(=O)O)C(C)C [PSTSXSLYASSPGGV] |  |  | IC50 (HLA-DRB1*01:01; [5]): 524 nM; IC50 (HLA-DRB1*04:01; [5]): 2520 nM |
| C[C@H](NC(=O)CNC(=O)[C@H](C)NC(=O)[C@H](CCC(=O)O)NC(=O)CNC(=O)[C@H](CCCNC(N)=O)NC(=O)[C@H](CC(=O)O)NC(=O)CNC(=O)[C@H](CCC(N)=O)NC(=O)[C@H](CCCCN)NC(=O)CNC(=O)[C@@H](NC(=O)[C@@H]1CCCN1)[C@@H](C)O)C(=O)N[C@@H](CCC(N)=O)C(=O)NCC(=O)O [PTGKQGDXGEAGAQG] (H-PTGKQGD[Cit]GEAGAQG-OH; N-terminus and C-terminus assumed) | > 40000 nM | > 40000 nM | DRB1*01:01 binding capacity, WT/cit ratio (HLA-DRB1*01:01; [2]): 0.6; DRB1*04:01 binding capacity, WT/cit ratio (HLA-DRB1*04:01; [2]): 1.0 |
| CC(C)[C@H](NC(=O)[C@H](CCC(N)=O)NC(=O)[C@H](CCCNC(N)=O)NC(=O)[C@H](CCCNC(=N)N)NC(=O)[C@H](Cc1ccc(O)cc1)NC(=O)[C@H](CCC(=O)O)NC(=O)[C@@H](NC(=O)[C@H](CO)NC(=O)[C@H](CCC(=O)O)NC(=O)[C@H](CCC(N)=O)NC(=O)[C@H](CCCCN)NC(=O)[C@H](C)NC(=O)[C@@H](N)CCC(N)=O)[C@@H](C)O)C(=O)N[C@@H](CCC(N)=O)C(=O)N[C@@H](CO)C(=O)O [QAKQESTEYRXQVQS] (H-QAKQESTEYR[Cit]QVQS-OH) | 1740 nM | 7440 nM |  |
| CC(C)[C@H](NC(=O)[C@H](CCC(N)=O)NC(=O)[C@H](CCCNC(=N)N)NC(=O)[C@H](CCCNC(N)=O)NC(=O)[C@H](Cc1ccc(O)cc1)NC(=O)[C@H](CCC(=O)O)NC(=O)[C@@H](NC(=O)[C@H](CO)NC(=O)[C@H](CCC(=O)O)NC(=O)[C@H](CCC(N)=O)NC(=O)[C@H](CCCCN)NC(=O)[C@H](C)NC(=O)[C@@H](N)CCC(N)=O)[C@@H](C)O)C(=O)N[C@@H](CCC(N)=O)C(=O)N[C@@H](CO)C(=O)O [QAKQESTEYXRQVQS] (H-QAKQESTEY[Cit]RQVQS-OH) | 9030 nM | > 40000 nM |  |
| CC[C@H](C)[C@H](NC(=O)[C@H](CCC(=O)O)NC(=O)[C@H](CC(=O)O)NC(=O)[C@@H](N)CCC(N)=O)C(=O)N[C@@H](CCC(N)=O)C(=O)N[C@@H](CC(N)=O)C(=O)N[C@@H](CCSC)C(=O)N[C@@H](CCCCN)C(=O)N[C@@H](CCC(=O)O)C(=O)N[C@@H](CCC(=O)O)C(=O)N[C@@H](CCSC)C(=O)N[C@@H](C)C(=O)N[C@@H](CCCNC(N)=O)C(=O)N[C@@H](Cc1c[nH]cn1)C(=O)N[C@@H](CC(C)C)C(=O)O [QDEIQNMKEEMAXHL] | 5890 nM | 3940 nM |  |
| CC(C)[C@H](NC(=O)[C@H](CC(=O)O)NC(=O)[C@H](CCCCN)NC(=O)[C@H](CC(=O)O)NC(=O)[C@H](CC(N)=O)NC(=O)[C@H](Cc1ccc(O)cc1)NC(=O)[C@H](CCCNC(N)=O)NC(=O)[C@H](CCC(N)=O)NC(=O)CNC(=O)[C@H](CC(=O)O)NC(=O)[C@@H](N)CCC(N)=O)C(=O)N[C@@H](Cc1c[nH]c2ccccc12)C(=O)N[C@@H](CCCCN)C(=O)N1CCC[C@H]1C(=O)N[C@@H](CCC(=O)O)C(=O)O [QDGQXYNDKDVWKPE] (H-QDGQ[Cit]YNDKDVWKPE-OH; N-terminus and C-terminus assumed) | > 40000 nM | > 40000 nM | DRB1*01:01 binding capacity, WT/cit ratio (HLA-DRB1*01:01; [2]): 1.0; DRB1*04:01 binding capacity, WT/cit ratio (HLA-DRB1*04:01; [2]): 1.0 |
| CSCC[C@H](NC(=O)[C@H](CCC(=O)O)NC(=O)[C@H](CCC(=O)O)NC(=O)[C@H](CCC(=O)O)NC(=O)[C@H](Cc1ccc(O)cc1)NC(=O)[C@H](CC(C)C)NC(=O)[C@H](CC(=O)O)NC(=O)CNC(=O)[C@H](CC(C)C)NC(=O)[C@H](CCCNC(=N)N)NC(=O)[C@H](CO)NC(=O)[C@H](CCCCN)NC(=O)CNC(=O)[C@@H](N)CCC(N)=O)C(=O)N[C@@H](CCCNC(N)=O)C(=O)O [QGKSRLGDLYEEEMX] (H-QGKSRLGDLYEEEM[Cit]-OH; N-terminus and C-terminus assumed) |  |  | IC50 (HLA-DRB1*01:01; [5]): > 40000 nM; DRB1*01:01 binding capacity, WT/cit ratio (HLA-DRB1*01:01): 0.7; IC50 (HLA-DRB1*04:01; [5]): > 40000 nM; DRB1*04:01 binding capacity, WT/cit ratio (HLA-DRB1*04:01): 1.0 |
| CSCC[C@H](NC(=O)[C@H](CCC(=O)O)NC(=O)[C@H](CCC(=O)O)NC(=O)[C@H](CCC(=O)O)NC(=O)[C@H](Cc1ccc(O)cc1)NC(=O)[C@H](CC(C)C)NC(=O)[C@H](CC(=O)O)NC(=O)CNC(=O)[C@H](CC(C)C)NC(=O)[C@H](CCCNC(N)=O)NC(=O)[C@H](CO)NC(=O)[C@H](CCCCN)NC(=O)CNC(=O)[C@@H](N)CCC(N)=O)C(=O)N[C@@H](CCCNC(=N)N)C(=O)O [QGKSXLGDLYEEEMR] (H-QGKS[Cit]LGDLYEEEMR-OH; N-terminus and C-terminus assumed) |  |  | IC50 (HLA-DRB1*01:01; [5]): > 40000 nM; DRB1*01:01 binding capacity, WT/cit ratio (HLA-DRB1*01:01): 0.7; IC50 (HLA-DRB1*04:01; [5]): > 40000 nM; DRB1*04:01 binding capacity, WT/cit ratio (HLA-DRB1*04:01): 1.0 |
| CC(C)C[C@H](NC(=O)CNC(=O)[C@H](CCCNC(N)=O)NC(=O)[C@@H]1CCCN1C(=O)CNC(=O)[C@@H](N)CCC(N)=O)C(=O)N1CCC[C@H]1C(=O)NCC(=O)N[C@H](C(=O)N1CCC[C@H]1C(=O)NCC(=O)N[C@H](C(=O)N[C@@H](CC(=O)O)C(=O)NCC(=O)N1CCC[C@H]1C(=O)O)[C@@H](C)O)[C@@H](C)O [QGPXGLPGTPGTDGP] (H-QGP[Cit]GLPGTPGTDGP-OH) | 21000 nM | > 40000 nM |  |
| CC(C)C[C@H](NC(=O)[C@@H](NC(=O)[C@H](CC(N)=O)NC(=O)[C@H](CCC(=O)O)NC(=O)[C@H](C)NC(=O)[C@H](CCC(=O)O)NC(=O)[C@H](CCC(=O)O)NC(=O)[C@@H](N)CCCNC(=N)N)[C@@H](C)O)C(=O)N[C@@H](CCC(N)=O)C(=O)N[C@@H](CO)C(=O)N[C@@H](Cc1ccccc1)C(=O)N[C@@H](CCCNC(N)=O)C(=O)N[C@@H](CCC(N)=O)C(=O)N[C@@H](CC(=O)O)C(=O)N[C@H](C(=O)O)C(C)C [REEAENTLQSFXQDV] (H-REEAENTLQSF[Cit]QDV-OH) |  |  | IC50 (HLA-DRB1*01:01; [5]): 33300 nM; IC50 (HLA-DRB1*04:01; [5]): 11600 nM |
